The subject of assay [1] is subcutaneous human non-small cell lung carcinoma (LX-1). The experiment in a line: In vivo efficacy against subcutaneous LX-1 tumor xenograft in nude mice. The settings on record: for Effectiveness in LX-1 solid tumor model (in words): Ara-C 100 mg/kg/dose, PEG-ara-C 20 mg/kg/dose (one fifth of native dose), i.v. x4; for Mean Vol. ± SEM at Day 24 / % Change ± SEM at Day 24 (mean percent change in individual tumor volumes from initial): LX-1 s.c. in nude mice, PEG-Ara-C 80 mg/kg; for Mean Vol. ± SEM at Day 24: i.v. x4 doses (day 1, 4, 7, 10), baseline 300 mm^3; for Mean Vol. ± SEM at Day 24 / % Change ± SEM at Day 24 (mean percent change in individual tumor volumes from initial) / T/C (%) at Day 7 / T/C (%) at Day 24 / Regression at Day 24 (#/Grp) / Complete Regression (#/Grp): total dose Ara-C 400 mg/kg; for % Change ± SEM at Day 24 (mean percent change in individual tumor volumes from initial): i.v. x4 doses; for T/C (%) at Day 7: median tumor volume treated vs control when control median approx. 1000 mm^3 (day 7); for T/C (%) at Day 7 / T/C (%) at Day 24 / Regression at Day 24 (#/Grp) / Complete Regression (#/Grp): PEG-Ara-C 80 mg/kg i.v.; for T/C (%) at Day 24: median tumor volume treated vs control when control median approx. 2400 mm^3 (day 24); for Regression at Day 24 (#/Grp): smaller tumor volume on day 24 compared to day 1. As for the experimental part: Athymic nude mice were implanted subcutaneous with a 4-5 mm^3 tissue fragment of LX-1 collected from donor mice. The tumor trocar site was observed twice weekly and measured once palpable. […] The mice were sorted to evenly distribute tumor size, grouped into 6 to 7 mice per group, and ear punched for permanent identification. Drugs were administered intravenously every 3 days×4 doses (day 1, 4, 7 and 10) via the tail vein at an approximate rate of 0.5 mL per minute. […] Therefore, this study compares the PEG-conjugate at one fifth the native dose, and presumably much less than its MTD. Mouse weight and tumor size were measured at the beginning of study and twice weekly through week 4. Drug effectiveness were determined by comparing tumor growth in treated versus untreated (no vehicle) control mice. Five types of endpoints were used as the basis for comparison: (a) mean tumor volumes at day 24; (b) mean percent change in individual tumor volumes from initial; (c) percent difference in tumor volume (%T/C), measured when the control group's median tumor volume reached approximately 800-1100 mm^3 (exponential growth phase); (d) percent difference in tumor volume (%T/C) at day 24 and (e) the number of tumor regression (smaller tumor volume on day 24 compared to day 1) per group.

For assay [2], the system named is P388/0. Put plainly: In vitro cytotoxicity assay (Alamar Blue), P388/0 cells. The conditions noted are these: 3 days incubation. Type of assay: cell-based. As for the experimental part: Cell Lines and Cytotoxicity Assays. Studies using P388/0 cell lines for IC50 (drug concentration inhibiting growth of cells by 50%) were maintained and conducted using standard procedures. Briefly, for IC50 determination, cells were seeded into the microwell plates at a density of 2×10^3 cells per 50 μL per well. Plates were incubated at 37° C. in a humidified incubator with 5% CO2 for 3 days. Cell growth was measured by the addition of 10 μL/well of Alamar Blue (Alamar Biosciences, Inc., Sacramento, Calif.) and the plates were incubated a further 4 hours at 37° C. The IC50 values for each compound were determined from absorbance versus dilution factor plots. All cell cultures for animal implantation were maintained at 37° C. in a humidified atmosphere of 5% CO2/[…] and subcultured once a week. All cell lines were periodically tested for Mycoplasma and were Mycoplasma free.

Broadly, the IC50 is the concentration that gives 50% inhibition. Lower therefore signals inhibition by little substance.

Take `Nc1ccn([C@@H]2O[C@H](CO)[C@@H](O)[C@@H]2O)c(=O)n1` [Ara-C, 1-(β-D-arabinofuranosyl)cytosine]: in assay [1], the “Effectiveness in LX-1 solid tumor model (in words)” value is given as “ineffective”, the “Mean Vol. ± SEM at Day 24” value worked out at 3192.5 mm^3, the “% Change ± SEM at Day 24 (mean percent change in individual tumor volumes from initial)” value is 1514.8% and the “T/C (%) at Day 7” value came out at 112.2%. In addition, in assay [1], the “T/C (%) at Day 24” value is 144.6%, the “Regression at Day 24 (#/Grp)” value is given as 0/7 and the “Complete Regression (#/Grp)” value is given as 0/7. Also, in assay [2] (Mus musculus, 72 h), inhibition was half-maximal at 10 nM (IC50).
PEG-amide-Ara-C [PEG-Ara-C]: in assay [1], the “Effectiveness in LX-1 solid tumor model (in words)” value was “significant tumor growth inhibition”, the “Mean Vol. ± SEM at Day 24” value is given as 2205.0 mm^3, the “% Change ± SEM at Day 24 (mean percent change in individual tumor volumes from initial)” value was 557.4% and the “T/C (%) at Day 7” value is on record as 76.4%. In assay [1], the “T/C (%) at Day 24” value is given as 73.0%, the “Regression at Day 24 (#/Grp)” value is 1/6 and the “Complete Regression (#/Grp)” value was 1/6. In assay [2], this compound gave an IC50 of 12 nM.
PEG-amide-Gemcitabine [PEG-Gemcitabine] came in with an IC50 in assay [2] of 46 nM.
As to `Nc1ccn([C@@H]2O[C@H](CO)[C@@H](O)C2(F)F)c(=O)n1` [Gemcitabine, gemcitabine], the IC50 in assay [2] (Mus musculus, 72 h) is 2 nM.

The record behind these values is patent US6376470B1, “Polymer conjugates of ara-C and ara-C derivatives” (Enzon, Inc., priority 1999, dated 2002).
